Source: patent US11753446B2, “Beta-hairpin peptidomimetics” (POLYPHOR AG, priority 2014, dated 2023)
Where two headings read alike, the source gives them in different places. Where a SMILES comes first, the peptide text is derived from it. Bridges are numbered along the chain shown (N, C = ends). [ ]: non-standard residue; d: D form. Tle = CC(C)(C)[C@H](N)C(=O)O; dDab = NCC[C@@H](N)C(=O)O; NMeA = CN[C@@H](C)C(=O)O; Orn = NCCC[C@H](N)C(=O)O; Dab = NCC[C@H](N)C(=O)O; Dap = NC[C@H](N)C(=O)O

Key:
[1] = system: human red blood cells (hRBC); experiment: Hemolysis: hemolytic activity at 100 μg/mL, 1 h at 37° C.
Method: Lyophilized peptides were weighed on a Microbalance (Mettler MT5) and dissolved in sterile water to a final concentration of 1 mg/mL. Stock solutions were kept at +4° C., light protected.
The peptides were tested for their hemolytic activity against human red blood cells (hRBC). Fresh hRBC were washed three times with phosphate buffered saline (PBS) and centrifuged for 5 min at 3000×g. Compounds (100 μg/mL) were incubated with 20% hRBC (v/v) for 1 h at 37° C. and shaking at 300 rpm. The final erythrocyte concentration was approximately 0.9×10^9 cells/mL. A value of 0% and 100% cell lyses, respectively, was determined by incubation of hRBC in the presence of PBS containing 0.001% acetic acid and 2.5% Triton X-100 in H2O, respectively. The samples were centrifuged, the supernatants were 8-fold diluted in PBS buffer and the optical densities (OD) were measured at 540 nm.
Percent hemolysis was calculated as follows: (OD540peptide/OD540H2O)×100%.

[2] = system: Acinetobacter baumannii DSM 30008; format: cell-based
Method: (§1) Stock solutions were kept at +4° C., light protected.
(§2) The selective antimicrobial activities of the peptides were determined in 96-well plates (Greiner, polystyrene) by the standard NCCLS broth microdilution method (National Committee for Clinical Laboratory Standards 1993. Methods for dilution antimicrobial susceptibility tests for bacteria that grow aerobically, 3rd ed. Approved standard M7-A6; National Committee for Clinical laboratory standards, Wayne, Pa.) with slight modifications. Inocula of the microorganisms were diluted into Mueller-Hinton II (MH, cation adjusted) broth and compared with a 0.5 McFarland standard to give appr. 10^6 colony forming units (CFU)/mL. Aliquots (90 μl) of inoculate were added to 10 μl of MH broth+P-80 (Polysorbate 80, 0.002% final concentration) containing the peptide in serial two-fold dilutions. The following microorganisms were used to determine antibiotic selectivity of the peptides: Escherichia coli ATCC 25922, Klebsiella pneumoniae ATCC 13883 and Acinetobacter baumannii DSM 30008.

[3] = system: Klebsiella pneumoniae ATCC 13883; format: cell-based
Method: as §1, §2

[4] = system: Escherichia coli ATCC 25922; format: cell-based
Method: as §1, §2

[5] = 100 μg/mL, 20% hRBC, 1 h at 37° C.
[6] = Mueller-Hinton II broth, 18-20 hours at 35° C.

Compound	Hemolysis at 100 μg/mL [1, 5] [%]	Acinetobacter baumannii DSM 30008 MIC [2, 6] [µg/mL]	Klebsiella pneumoniae ATCC 13883 MIC [3, 6] [µg/mL]	Escherichia coli ATCC 25922 MIC [4, 6] [µg/mL]	Hemolysis at 100 μg/mL ([1]; red cells of human, 1 h, 100) [%]	Acinetobacter baumannii DSM 30008 MIC ([2]; DSM 30008) [µg/mL]	Klebsiella pneumoniae ATCC 13883 MIC ([3]; ATCC 13883) [µg/mL]	Escherichia coli ATCC 25922 MIC ([4]; ATCC 25922) [µg/mL]
CC(C)C[C@@H]1NC(=O)[C@H](CCCNC(=N)N)NC(=O)[C@H]2CCCN2C(=O)[C@H](C(C)C)NC(=O)[C@@H]2CSSC[C@H](NC1=O)C(=O)N[C@@H](Cc1ccc(O)cc1)C(=O)N[C@@H](C)C(=O)N[C@@H](CCN)C(=O)N[C@@H](CCN)C(=O)N[C@@H](CCN)C(=O)N[C@@H](Cc1c[nH]c3ccccc13)C(=O)N[C@@H](C)C(=O)N[C@@H](C(C)C)C(=O)N2 [Example 1, cyclo(-Leu-Cys-Tyr-Ala-Dab-Dab-Dab-Trp-Ala-Val-Cys-Val-^DPro-Arg-)] (HELM PEPTIDE1{A.[Dab].[Dab].[Dab].W.A.V.C.V.[dP].R.L.C.Y}$PEPTIDE1,PEPTIDE1,8:R3-13:R3|PEPTIDE1,PEPTIDE1,1:R1-14:R2$$$V2.0)	5	0.75	1	2	–	–	–	–
CC(C)C[C@@H]1NC(=O)[C@H](CCCNC(=N)N)NC(=O)[C@H]2CCCN2C(=O)[C@H](C(C)C)NC(=O)[C@@H]2CSSC[C@H](NC1=O)C(=O)N[C@@H](Cc1ccc(O)cc1)C(=O)N[C@@H](C)C(=O)N[C@@H](CCN)C(=O)N[C@H](CCN)C(=O)N[C@@H](CCN)C(=O)N[C@@H](Cc1c[nH]c3ccccc13)C(=O)N[C@@H](C)C(=O)N[C@@H](C(C)C)C(=O)N2 [Example 2, cyclo(-Leu-Cys-Tyr-Ala-Dab-^DDab-Dab-Trp-Ala-Val-Cys-Val-^DPro-Arg-)] (HELM PEPTIDE1{A.[Dab].[NCC[C@@H](N[*:1])C(=O)[*:2]].[Dab].W.A.V.C.V.[dP].R.L.C.Y}$PEPTIDE1,PEPTIDE1,8:R3-13:R3|PEPTIDE1,PEPTIDE1,1:R1-14:R2$$$V2.0)	–	–	–	–	5	2.5	2	4
CC(C)C[C@@H]1NC(=O)[C@H](CCCNC(=N)N)NC(=O)[C@H]2CCCN2C(=O)[C@H](C(C)C)NC(=O)[C@@H]2CSSC[C@H](NC1=O)C(=O)N[C@@H](Cc1ccc(O)cc1)C(=O)N[C@@H](C)C(=O)N[C@@H](CCCN)C(=O)N[C@H](CCN)C(=O)N[C@@H](CCN)C(=O)N[C@@H](Cc1c[nH]c3ccccc13)C(=O)N[C@@H](C)C(=O)N[C@@H](C(C)C)C(=O)N2 [Example 3, cyclo(-Leu-Cys-Tyr-Ala-Orn-^DDab-Dab-Trp-Ala-Val-Cys-Val-^DPro-Arg-)] (HELM PEPTIDE1{A.[Orn].[NCC[C@@H](N[*:1])C(=O)[*:2]].[Dab].W.A.V.C.V.[dP].R.L.C.Y}$PEPTIDE1,PEPTIDE1,8:R3-13:R3|PEPTIDE1,PEPTIDE1,1:R1-14:R2$$$V2.0)	–	–	–	–	4	1	1	2
CC(C)C[C@@H]1NC(=O)[C@H](CCN)NC(=O)[C@@H](CCN)NC(=O)[C@H](CCCN)NC(=O)[C@H](CC(N)=O)NC(=O)[C@H](Cc2ccc(O)cc2)NC(=O)[C@@H]2CSSC[C@H](NC(=O)[C@H](C(C)(C)C)NC(=O)[C@H](CO)NC1=O)C(=O)N[C@@H](C(C)C)C(=O)N[C@H](CCN)C(=O)N[C@@H](CCCNC(=N)N)C(=O)N[C@@H](CC(C)C)C(=O)N2 [Example 4, cyclo(-Leu-Cys-Tyr-Asn-Orn-^DDab-Dab-Leu-Ser-tBuGly-Cys-Val-^DDab-Arg-)] (cyclo(CV[dDab]RLCYN[Orn][dDab][Dab]LS[Tle]); disulfide 1-6)	–	–	–	–	4	0.25	0.5	0.75
CC[C@H](C)[C@@H]1NC(=O)[C@H](CCCNC(=N)N)NC(=O)[C@@H](CCN)NC(=O)[C@H](Cc2ccc(O)cc2)NC(=O)[C@@H]2CSSC[C@H](NC1=O)C(=O)N[C@@H](Cc1ccc(O)cc1)C(=O)N[C@@H](CC(N)=O)C(=O)N[C@@H](CCCN)C(=O)N[C@H](CCN)C(=O)N[C@@H](CCN)C(=O)N[C@@H](CC(C)C)C(=O)N[C@@H](CO)C(=O)N[C@@H](C(C)C)C(=O)N2 [Example 5, cyclo(-Ile-Cys-Tyr-Asn-Orn-^DDab-Dab-Leu-Ser-Val-Cys-Tyr-^DDab-Arg-)] (HELM PEPTIDE1{C.Y.N.[Orn].[NCC[C@@H](N[*:1])C(=O)[*:2]].[Dab].L.S.V.C.Y.[NCC[C@@H](N[*:1])C(=O)[*:2]].R.I}$PEPTIDE1,PEPTIDE1,1:R3-10:R3|PEPTIDE1,PEPTIDE1,1:R1-14:R2$$$V2.0)	–	–	–	–	4	0.25	0.25	0.5
CC(C)C[C@@H]1NC(=O)[C@H](CCN)NC(=O)[C@@H](CCN)NC(=O)[C@H]([C@@H](C)O)NC(=O)[C@@H]2CSSC[C@H](NC1=O)C(=O)N[C@@H](Cc1ccc(O)cc1)C(=O)N[C@@H](CC(N)=O)C(=O)N[C@@H](CCCN)C(=O)N[C@H](CCN)C(=O)N[C@@H](CCN)C(=O)N[C@@H](Cc1c[nH]c3ccccc13)C(=O)N[C@@H](CO)C(=O)N[C@@H](C(C)(C)C)C(=O)N2 [Example 6, cyclo(-Leu-Cys-Tyr-Asn-Orn-^DDab-Dab-Trp-Ser-tBuGly-Cys-Thr-^DDab-Dab-)] (cyclo(CT[dDab][Dab]LCYN[Orn][dDab][Dab]WS[Tle]); disulfide 1-6)	5	0.5	0.5	0.5	–	–	–	–
CC(C)C[C@@H]1NC(=O)[C@H](CCN)NC(=O)[C@@H](CCN)NC(=O)[C@H]([C@@H](C)O)NC(=O)[C@@H]2CSSC[C@H](NC1=O)C(=O)N[C@@H](Cc1ccc(O)cc1)C(=O)N[C@@H](CC(N)=O)C(=O)N[C@@H](CCCN)C(=O)N[C@H](CCN)C(=O)N[C@@H](CCN)C(=O)N[C@@H](Cc1c[nH]c3ccccc13)C(=O)N[C@@H](CO)C(=O)N[C@@H](Cc1ccc(O)cc1)C(=O)N2 [Example 7, cyclo(-Leu-Cys-Tyr-Asn-Orn-^DDab-Dab-Trp-Ser-Tyr-Cys-Thr-^DDab-Dab-)] (HELM PEPTIDE1{C.T.[NCC[C@@H](N[*:1])C(=O)[*:2]].[Dab].L.C.Y.N.[Orn].[NCC[C@@H](N[*:1])C(=O)[*:2]].[Dab].W.S.Y}$PEPTIDE1,PEPTIDE1,1:R3-6:R3|PEPTIDE1,PEPTIDE1,1:R1-14:R2$$$V2.0)	–	–	–	–	1	2	1	2
CC(C)C[C@@H]1NC(=O)[C@H](CCN)NC(=O)[C@@H](CCN)NC(=O)[C@H](CO)NC(=O)[C@@H]2CSSC[C@H](NC1=O)C(=O)N[C@@H](Cc1ccc(O)cc1)C(=O)N[C@@H](CC(N)=O)C(=O)N[C@@H](CCCN)C(=O)N[C@H](CCN)C(=O)N[C@@H](CCN)C(=O)N[C@@H](Cc1c[nH]c3ccccc13)C(=O)N[C@@H](CO)C(=O)N[C@@H](Cc1ccc(O)cc1)C(=O)N2 [Example 8, cyclo(-Leu-Cys-Tyr-Asn-Orn-^DDab-Dab-Trp-Ser-Tyr-Cys-Ser-^DDab-Dab-)] (HELM PEPTIDE1{C.S.[NCC[C@@H](N[*:1])C(=O)[*:2]].[Dab].L.C.Y.N.[Orn].[NCC[C@@H](N[*:1])C(=O)[*:2]].[Dab].W.S.Y}$PEPTIDE1,PEPTIDE1,1:R3-6:R3|PEPTIDE1,PEPTIDE1,1:R1-14:R2$$$V2.0)	–	–	–	–	1	1.5	0.5	1
CC(C)[C@@H]1NC(=O)[C@@H]2CCCN2C(=O)[C@H](C)N(C)C(=O)[C@H](CO)NC(=O)[C@@H]2CSSC[C@H](NC1=O)C(=O)N[C@@H](Cc1ccc(O)cc1)C(=O)N[C@@H](CCN)C(=O)N[C@@H](CN)C(=O)N[C@H](CCN)C(=O)N[C@@H](CCN)C(=O)N[C@@H](Cc1c[nH]c3ccccc13)C(=O)N[C@@H](CCN)C(=O)N[C@@H](C(C)(C)C)C(=O)N2 [Example 9, cyclo(-Val-Cys-Tyr-Dab-Dap-^DDab-Dab-Trp-Dab-tBuGly-Cys-Ser-NMeAla-Pro-] (cyclo(CS[NMeA]PVCY[Dab][Dap][dDab][Dab]W[Dab][Tle]); disulfide 1-6)	–	–	–	–	2	1	0.5	0.5
